These results are taken from the OPERA property sets (Mansouri et al. 2018).

With `Cc1ccccc1S(=O)(=O)N1C(=O)NC(=O)C1(c1ccccc1)c1ccccc1`, the logP turned out to be 4.

`CCOc1ccc(NC(=O)OC(C)CCl)cc1OCC` (stereo unspecified) registered a logP of 2.97.

As to `CCSc1nnc(C(C)(C)C)c(=O)n1N`, the logP stood at 2.08. The value for `COC(=O)Cc1ccc(-n2sc3ccccc3c2=O)cc1` was 2.83; that for `O=[N+]([O-])C=C1CCCN1Cc1ccc(Cl)nc1` was 0.68; that for `CC(=O)CC(=O)Nc1n[n+]([O-])c2ccccc2[n+]1[O-]` was -1.4. `O=C1NC(=O)C(c2ccccc2)(c2ccccc2)N1S(=O)(=O)c1ccccc1` had a logP of 4.04. `COC(=O)NC(=S)Nc1ccccc1N` came in with a logP of 0.7. The value for `CCOc1cc[n+]([O-])cc1` was -0.53; that for `C=CCNC(=O)N(CCC)CCCC(NC(C)=O)C(=O)NCc1ccccc1` (stereo unspecified) was 1.21. The value for `O=C1NC(=O)C(c2ccccc2)(c2ccccc2)N1S(=O)(=O)c1ccc(Cl)cc1` was 4.48; that for `COc1cccc(OC)c1C(=O)Nc1nnc(-c2ccc(Br)cc2)s1` was 3.92. Regarding `C#CCOc1cc(NC=NOCOC)cc(F)c1OCC#C`, the logP was 1.7. The value for `CCCN(CCCCC(NC(C)=O)C(=O)NCc1ccccc1)C(=O)N(C)N=O` (stereo unspecified) was 1.73; that for `CC(=O)NC(CCCNC(=O)N(C)N=O)C(=O)NCc1ccccc1` (stereo unspecified) was 0.98. The value for `COc1ccc2cc(CC(=O)OCC(=O)N(C(C)C)C(C)C)ccc2c1` was 3.89; that for `CCCN1CCN(CCC)C1=S` was 1.86. The value for `COc1ccccc1NC(=O)OC1CCCCC1CN(C)C` (stereo unspecified) was 3.55; that for `CCC(C)c1ccc(OC(=O)N(C)C)cc1` (stereo unspecified) was 3.62; that for `C=CCN(N=O)C(=O)N(CCCCC(NC(C)=O)C(=O)Nc1ccccc1)Cc1ccccc1` (stereo unspecified) was 2.7. For the compound `CCOC(=O)CCCOc1ccc(-n2sc3ccccc3c2=O)cc1`, the logP amounted to 3.96. `CCOC(=O)C(CC)c1ccc(-n2sc3ccccc3c2=O)cc1` (stereo unspecified) had a logP of 4.11. In turn, `CCCCCOc1ccccc1NC(=O)OC1CCCCC1CN(C)C` (stereo unspecified) had a logP of 5.46.

For the compound `COc1ccc(-c2nnc(NC(=O)c3c(OC)cccc3OC)s2)cc1`, the logP worked out at 3.56.

Take `COC1N(C2CC(N=[N+]=[N-])C(CO)O2)C(=O)NC(=O)C1(C)Br` (stereo unspecified): the logP stood at 1.12.

For `CCOC(=O)NC1CCc2cc(OC)c(OC)c(OC)c2-c2ccc(OC)c(=O)cc21` (stereo unspecified), the logP worked out at 2.3.

The compound `CC(C)c1ccc(OC(=O)N(C)C)cc1` gave a log partition coefficient (logP) of 3.04. The value for `COc1ccc2c(c1OC)-c1ccc(OC)c(=O)cc1C(NC(C)=O)CC2` (stereo unspecified) was 1.02; that for `COc1ccc2cc(CC(=O)OCC(=O)N(C)C)ccc2c1` was 2.23; that for `COc1ccc2cc(CC(=O)OCC(=O)N3CCOCC3)ccc2c1` was 2.13. The value for `C=CCNC(=O)NCCCC(NC(C)=O)C(=O)NCc1ccccc1` (stereo unspecified) was 0.68. The value for `CCC(=O)Oc1ccccc1C(=O)O` was 1.67; that for `CCOC(=O)C(C)Oc1ccc(-n2sc3ccccc3c2=O)cc1` (stereo unspecified) was 3.89; that for `c1ccc(CC2CC3=NOS4=C3C(=NO4)C2)cc1` was 2.8. In the case of `CC12CCC(CC1=O)C2(C)C` (stereo unspecified), the log partition coefficient (logP) is 2.38. On to `C#CCOc1cc(NC=NOC)cc(F)c1OCC#C`, for which the logP is 1.8. The value for `COP(=O)(CC(C)=O)OC` was -0.86.

On to `CC(=O)c1cc[n+]([O-])cc1`, for which the logP was -0.93. As for `CCOC(=O)C(C)c1ccc(-n2sc3ccccc3c2=O)cc1` (stereo unspecified), the logP stood at 3.91.

The compound `CCOc1ccc(NC(=O)OC(C)CF)cc1OCC` (stereo unspecified) showed a lipophilicity (logP) of 2.59. The value for `C#CCC(C)OC(=O)Nc1ccc(OCC)c(OCC)c1` (stereo unspecified) was 2.86; that for `Nc1n[n+]([O-])c2ccc(Cl)cc2[n+]1[O-]` was 0.41. The value for `COc1cccc(OC)c1C(=O)Nc1nnc(-c2ccccc2)s1` was 3.5; that for `CN(C)C(=O)Oc1cccc(Cl)c1` was 2.33; that for `Cc1cc[n+]([O-])cc1` was -0.88. The value for `CCOC(=O)Cc1ccc(-n2sc3ccccc3c2=O)cc1` was 3.33; that for `COC1N(C2CC(N=[N+]=[N-])C(CO)O2)C(=O)NC(=O)C1(C)I` (stereo unspecified) was 1.03; that for `Cc1ccnc(N)c1` was 0.56. Compound `COc1n[n+]([O-])c2ccccc2[n+]1[O-]` displayed a lipophilicity (logP) of -0.3. For the compound `O=C1NC(Cc2c[nH]c3ccccc23)C(=O)NC1Cc1ccc(O)cc1` (stereo unspecified), the lipophilicity (logP) was 1.05. The value for `C=CCN(N=O)C(=O)NCCCCC(NC(C)=O)C(=O)NCc1ccccc1` (stereo unspecified) was 1.62; that for `CCCCCCOc1ccccc1NC(=O)OC1CCCCC1CN(C)C` (stereo unspecified) was 5.9. The value for `CCCCCCn1c(N)c(N)c(=O)[nH]c1=O` was 1.01. The compound `CN(C)C(=O)Oc1ccc(C#N)cc1` returned a logP of 1.21.

`CCCCOc1ccccc1NC(=O)OC1CCCCC1CN(C)C` (stereo unspecified): the logP was determined as 5.01. The value for `C=CCN1CCCN(CC=C)C1=S` was 2.08. The value for `CNC(=O)ON=C(CSC)C(C)(C)C` was 2.75; that for `ClC1=C(Cl)C2C(C1Cl)C1(Cl)C(Cl)C(Cl)C2(Cl)C1(Cl)Cl` (stereo unspecified) was 6.08; that for `CC(=O)Nc1n[n+]([O-])c2ccccc2[n+]1[O-]` was -0.6.

Regarding `Clc1ccc(-c2ccc(Cl)c(Cl)c2)cc1`, the lipophilicity (logP) amounted to 5.9.

Turning to `CC(C)(C)c1ccc(CC2CCCC2(O)Cn2cncn2)cc1` (stereo unspecified), the logP amounted to 3.97. The value for `CCCN(CCCl)c1c([N+](=O)[O-])cc(C(F)(F)F)cc1[N+](=O)[O-]` was 4.63. The value for `C#CCOc1ccc(NC=NOC)cc1OCC#C` was 1.6.

`COc1ccc2cc(CC(=O)OCC(=O)N3CCCC3)ccc2c1` registered a logP of 2.71. The value for `CCCC(=O)Oc1ccccc1C(=O)O` was 2.2. `CCN(CCO)C(=O)COC(=O)Cc1ccc2cc(OC)ccc2c1` showed a logP of 1.98.

Take `CCCCCCCOc1ccccc1NC(=O)OC1CCCCC1CN(C)C` (stereo unspecified): the lipophilicity (logP) worked out at 6.3. In turn, `CCN(CC)C(=O)COC(=O)Cc1ccc2cc(OC)ccc2c1` yielded a logP of 3.05. The value for `COc1ccc2cc(CC(=O)OCC(=O)N(C)CCO)ccc2c1` was 1.58; that for `COc1ccc2cc(CC(=O)OCC(=O)NC(C)C)ccc2c1` was 2.89; that for `CN(C)C(=O)Oc1cccc(N(C)C)c1` was 1.93.

The compound `Cc1cc2c(cc1C)[n+]([O-])c(N)n[n+]2[O-]` yielded a logP of 0.56. The value for `N#CN=C1NCCN1Cc1ccc(Cl)nc1` was 0.77. The value for `COc1cccc(OC)c1C(=O)Nc1nnc(-c2ccc(C)cc2)s1` was 3.85; that for `OC1(Cn2cncn2)CCCC1Cc1ccccc1` (stereo unspecified) was 2.26. `CC(=O)NC(CCCCN(Cc1ccccc1)C(=O)N(C)N=O)C(=O)NCc1ccccc1` (stereo unspecified): the lipophilicity (logP) was 2.12. The value for `C#CCOc1cc(NC=NOCC)cc(Cl)c1OCC#C` was 2.6; that for `CCCNC(=O)COC(=O)Cc1ccc2cc(OC)ccc2c1` was 3.1. The value for `Cc1ccc2c(c1)[n+]([O-])nc(N)[n+]2[O-]` was 0.2; that for `CCCOc1ccccc1NC(=O)OC1CCCCC1CN(C)C` (stereo unspecified) was 4.44; that for `CCOc1ccccc1NC(=O)OC1CCCCC1CN(C)C` (stereo unspecified) was 4.14. `CCCCCCCCn1c(N)c(N)c(=O)[nH]c1=O` yielded a log partition coefficient (logP) of 2.05. `CC(=O)Oc1ccc(C(=O)O)cc1` yielded a logP of 1.48.

For `COCCNC(=O)Cn1ccnc1[N+](=O)[O-]`, the log partition coefficient (logP) is -0.77. The compound `COC(=O)c1ccc(-n2sc3ccccc3c2=O)cc1` showed a log partition coefficient (logP) of 3.49.

Take `COC1N(C2CC(N=[N+]=[N-])C(CO)O2)C(=O)NC(=O)C1(C)Cl` (stereo unspecified): the logP was 0.84. The value for `CC(=O)c1ccc(OC(=O)N(C)C)cc1` was 1.27; that for `CCC(C(N)=O)c1ccc(-n2sc3ccccc3c2=O)cc1` (stereo unspecified) was 2.58; that for `CCC(C)NC(=O)COC(=O)Cc1ccc2cc(OC)ccc2c1` (stereo unspecified) was 3.31. `CC(=O)Nc1n[n+]([O-])c2cc(C)ccc2[n+]1[O-]` registered a lipophilicity (logP) of -0.4. The value for `CCOC(=O)CCOc1ccc(-n2sc3ccccc3c2=O)cc1` was 3.59; that for `COc1ccc2c(c1)[n+]([O-])nc(N)[n+]2[O-]` was 0; that for `CCCCc1ccc(CO)cc1` was 3.

With `[O-][n+]1ccc(Cl)cc1`, the lipophilicity (logP) was -0.44.

Regarding `CCCc1ccc(CO)cc1`, the logP was 2.67. The value for `CCNC(=O)COC(=O)Cc1ccc2cc(OC)ccc2c1` was 2.65; that for `C=CCC(C)OC(=O)Nc1ccc(OCC)c(OCC)c1` (stereo unspecified) was 3.37; that for `CCC(C(=O)OC)c1ccc(-n2sc3ccccc3c2=O)cc1` (stereo unspecified) was 3.91.

In the case of `C#CCON=CNc1cc(F)c(OCC#C)c(OCC#C)c1`, the lipophilicity (logP) is 1.8. The value for `CC(=O)Oc1cccc(C(=O)O)c1` was 1.49; that for `O=C1NC(=O)C(c2ccccc2)(c2ccccc2)N1S(=O)(=O)c1ccc([N+](=O)[O-])cc1` was 4.04. The value for `C1SCC2=NOS3=C2C1=NO3` was 1.2; that for `C=CCOc1ccc2c(c1)[n+]([O-])nc(N)[n+]2[O-]` was 0.76. `CN(C)C(=O)Oc1cccc(C#N)c1`: the lipophilicity (logP) is 1.23. The value for `COc1cccc(OC)c1C(=O)Nc1nnc(-c2ccc(Cl)cc2)s1` was 3.96; that for `CN(C)C(=O)Oc1cccc([N+](=O)[O-])c1` was 1.56; that for `CCOc1ccc(NC(=O)OCCBr)cc1OCC` was 2.78.

In turn, `C#CCNC(=O)NCCCCC(NC(C)=O)C(=O)NCc1ccccc1` (stereo unspecified) came in with a logP of 0.23.

On to `C=CCN1CCN(CC=C)C1=S`, for which the logP amounted to 1.63. The compound `CCc1ccc(CO)cc1` gave a logP of 2.27.

`C#CCNC(=O)NCCCC(NC(C)=O)C(=O)NCc1ccccc1` (stereo unspecified) showed a logP of -0.31. The value for `C#CCON=CNc1cc(Cl)c(OCC#C)c(OCC#C)c1` was 2.3. Consider `CCOc1ccc(NC(=O)OCCF)cc1OCC`, for which the logP stood at 2.27.

`COc1ccc2cc(CC(=O)OCC(N)=O)ccc2c1` returned a lipophilicity (logP) of 1.88. The value for `COc1ccc2cc(CC(=O)O)ccc2c1` was 2.82; that for `CC(=O)NC(CCCCNC(=O)N(C)N=O)C(=O)NCc1ccccc1` (stereo unspecified) was 1.18.

By logP is commonly meant a log measure of how a compound divides between an organic and an aqueous phase. A low value points to a more hydrophilic compound.
